Data on 3 compounds can be found in US10071042B2, “External dermatological agent for anti-ageing” (Hayashibara Co., Ltd., priority 2014, dated 2018).

For test [1], the system named is normal human epidermal keratinocytes. Put plainly: Differentiation of keratinocytes, microscopic morphology score (Experiment 1-1). Format: cell-based. The conditions noted are these: 3 days culture, mean of triplicate. The source says: To 12-well plates, one milliliter of a cell suspension with a cell density of 2.5×10^4 cells/mL prepared by suspending normal human epidermal keratinocytes in EpiLife, a product name of a medium for keratinocytes containing a growth factor, commercialized by Life Technologies, Inc., 9800 Medical Center Drive Rockville, Md. 20850 USA; followed by culturing the cells until prevailing up to about ½ of the bottom surface of each well. Thereafter, the culture medium in each well was replaced with a medium for keratinocytes free of growth factor and cultured for two days, and then replaced with a fresh medium for keratinocytes, which contained any one of the test substances in Table 1 at respective concentrations as indicated in the table, and then cultured for three days. As a control, a culture system was provided similarly as above except for not adding any of the test substances. Under a microscopic condition, cell morphology was observed and evaluated for the keratinocyte-differentiation-inducing ability based on the following criteria:
Score 1: The number of cells in a flattened form against the total cells is 50% or lower.
Score 2: The number of cells in a flattened form against the total cells is 50% or more.
Score 3: Nearly all of the cells are in an irregular shape and there appears some cells with gloss.
It means that the higher the score the more the cell differentiation was accelerated. Each experiment system was performed in a triplicate manner, followed by calculating a mean value for each system.

For a further test, the system named is transglutaminase. Put plainly: Transglutaminase activity, fluorescein cadaverine uptake (Experiments 1-3 and 7). Format: cell-based, human. The conditions noted are these: control = 100%. The protocol: Normal human epidermal keratinocytes were cultured similarly as in Experiment 1-1, except for adding the test substances as listed in Table 3 to respective culture systems. The cultured normal human epidermal keratinocytes were added with 100 μM of fluorescein cadaverine and allowed to stand for four hours. Thereafter, the resulting cells were washed once with phosphate buffered saline and further treated with cold methanol for 10 min for cell fixation. The fixed cells were washed thrice with cold methanol, followed by the addition of phosphate buffered saline. Fluorescein cadaverine taken in the cells via transglutaminase was analyzed with Cell Imaging Station, commercialized by Molecular Probes Life Technology, France, and the analyzed fluorescent intensities were regarded as transglutaminase activities. There was provided a control system similarly as in the above, except for not adding any of the test substances. The transglutaminase activity of each test substance was evaluated as a relative value determined with the following equation using the fluorescent intensity of the control system being regarded as 100%. Equation: Transglutaminase activity (relative value (%))=[(Fluorescent intensity of a sample with any one of test substances)/(Fluorescent intensity of control)]×100
The experiment was repeated three times, and the data was subjected to the Dunnett's multiple comparisons with Control. The symbol “*” means a level of significance of p<0.01.
Except for adding the test substances listed in Tables 8 and 9 at respective concentrations shown in the tables, experiments were respectively conducted in accordance with the methods in Experiments 1-2 and 1-3 disclosed in the specification to examine the effect of the combination use of epigallocatechin gallate, which is used as an antioxidant for cosmetics, and sodium adenosine N1-oxide 5′-phosphate on the action of accelerating the cornified-envelope production and the action of enhancing the transglutaminase activity of sodium adenosine N1-oxide 5′-phosphate. A control system was provided and similarly treated as above except for not adding any test substance and was determined for both the increase rates of cornified-envelope production level and the transglutaminase activity, based on the following equations. Equation: Increase rate of cornified envelope production level (%)={[(Absorbance of a sample with any one of test substances)/(Absorbance of control)]×100}−100 Equation: Increase rate of transglutaminase (%)={[(Absorbance of a sample with any one of test substances)/(Absorbance of control)]×100}−100

Test [2] concerns normal human dermal fibroblasts (NHDF). Put plainly: Number of cells, cytometry kit (Experiment 5). Format: cell-based. Particulars: control = 100%. The source says:
The number of cells was counted with a cytometry kit (or a staining method) and the variation of cell number when added with any one of the test substances, based on the value of control being regarded as 100%.

Another test has as its system matrix metalloprotease-1. Briefly: Matrix metalloprotease-1 production of NHDF after IL-1β, ELISA (Experiments 5 and 9). Format: cell-based, human. The conditions noted are these: human IL-1β 1 ng/ml, control = 100%. The protocol: Normal human dermal fibroblasts (NHDF), which had been suspended in a Dulbecco's Modified Eagle Medium supplemented with 10% fetal calf serum to give a concentration of 2.5×10^5 cells/mL, were placed in 96-well microplates by 0.1 mL/well and cultured until reaching a confluent state over the bottom of each well. Thereafter, the medium in each well was replaced with a fresh serum-free culture medium and culture for another 24 hours, added with any one of the test substances in Table 6 at each concentration shown in the table, and cultured for additional 24 hours. Then, the resulting cell cultures were added with human IL-1β to give a final concentration of 1 ng/ml, followed by culturing the cells for another 24 hours. After completion of the culture, matrix metalloprotease-1 in the supernatant in each well was detected with an enzyme-linked immuno sorbent assay (ELISA), commercialized by R & D Systems, Inc., MN, USA, developed coloration with tetramethylbenzidine, and measured for absorption at a wavelength of 450 nm. A control system was provided similarly as above except for not adding any test substance, and determined for the activity of matrix metalloprotease-1 similarly as in the above to be regarded as 100%. The production level of matrix metalloprotease-1 for each test substance was comparatively evaluated based on the following equation. Equation: Production level of matrix metalloprotease-1 (relative value (%))=[(Absorbance of a sample with any one of test substances)/(Absorbance of control)]×100
The experiment was repeated three times, and the data were compared to that of control with the Dunnett's multiple comparisons test. The symbol “*” means a level of significance of p<0.01.
Except for adding the test substances listed in Table 12 at respective concentrations shown in the table, experiments were respectively conducted in accordance with the methods in Experiment 5 disclosed in the specification to examine the effect of the combination use with ascorbic acid 2-glucoside used as a skin whitener in cosmetics on the action of anti-wrinkles by analogues of adenosine N1-oxide 5′-phosphate. A control system was provided and similarly treated as above except for not adding any test substance. The reduction rate of the production level of matrix metalloprotease-1 against that of control based on the following equation. Equation: Reduction rate of the production level of matrix metalloprotease−1(%)=100−[(Absorbance of a sample with any one of test substances)/(Absorbance of control)]×100
On the technique in general: An ELISA detects its analyte on a solid surface through an enzyme-linked reagent.

Marks after values point to notes of the source that are not given here.

As for “5′-α-Glucosyladenosine [reference compound]”, the Score in test [1] (200 μM), in test [1] (400 μM) and in test [1] (800 μM) was 0.0 in each case. Moreover, in the test with transglutaminase (400 μM), the “Transglutaminase activity (%)” value turned out to be 33%. For the same compound, the “Number of cells (%)” value in test [2] (200 μM) is on record as 104.0%; in test [2] (400 μM) it was 103.4%; in test [2] (800 μM) it was 93.4%. In addition, the “Production level of matrix metalloprotease-1 (%)” value (shortened to “Production level … (%)”) amounted to 89.9% with matrix metalloprotease-1 (200 μM), 94.3% with matrix metalloprotease-1 (400 μM) and 87.7% with matrix metalloprotease-1 (800 μM).

For the compound `Nc1ncnc2c1ncn2[C@@H]1O[C@H](CO)[C@@H](O)[C@H]1O` [Adenosine, reference compound], the Score in test [1] (100 μM), in test [1] (200 μM) and in test [1] (400 μM) was 0.0 throughout. Moreover, the “Transglutaminase activity (%)” value with transglutaminase (400 μM) is listed as 360%. The “Number of cells (%)” value in test [2] (200 μM) stood at 93.5%; in test [2] (400 μM), 87.4%; in test [2] (800 μM), 91.2%. Further, the “Production level … (%)” value is on record as 88.7% in the test with matrix metalloprotease-1 (200 μM), 93.4% with matrix metalloprotease-1 (400 μM) and 85.6% in the test with matrix metalloprotease-1 (800 μM).

With “3′-α-glucosyl adenosine N1-oxide [3′-α-Glucosyladenosine N1-oxide]”, the results for the Score in test [1] (40 μM), in test [1] (80 μM) and in test [1] (160 μM) were 2.0, 2.0 and 3.0, respectively. Also, the “Transglutaminase activity (%)” value with transglutaminase (100 μM) worked out at 300%. The “Number of cells (%)” value in test [2] (200 μM) was determined as 103.8%; in test [2] (400 μM), 104.5%; in test [2] (800 μM) it was 97.4%. Further, the “Production level … (%)” value is listed as 78.7* % in the test with matrix metalloprotease-1 (200 μM), 75.5* % in the test with matrix metalloprotease-1 (400 μM) and 68.6* % with matrix metalloprotease-1 (800 μM).
